19 compounds from patent US20260159500A1, “KINESIN KIF18A INHIBITOR AND USE THEREOF” (SHANGHAI APEIRON THERAPEUTICS COMPANY LIMITED, priority 2022, published 2026) can be followed below.

Assay [1] concerns the target T1, Human KIF18A (amino acid sequence 1-417) (Homo sapiens, UniProt Q8NI77).
T1 construct: purchased Viva Biotech (Shanghai) Ltd
T1 sequence (Q8NI77 1-417): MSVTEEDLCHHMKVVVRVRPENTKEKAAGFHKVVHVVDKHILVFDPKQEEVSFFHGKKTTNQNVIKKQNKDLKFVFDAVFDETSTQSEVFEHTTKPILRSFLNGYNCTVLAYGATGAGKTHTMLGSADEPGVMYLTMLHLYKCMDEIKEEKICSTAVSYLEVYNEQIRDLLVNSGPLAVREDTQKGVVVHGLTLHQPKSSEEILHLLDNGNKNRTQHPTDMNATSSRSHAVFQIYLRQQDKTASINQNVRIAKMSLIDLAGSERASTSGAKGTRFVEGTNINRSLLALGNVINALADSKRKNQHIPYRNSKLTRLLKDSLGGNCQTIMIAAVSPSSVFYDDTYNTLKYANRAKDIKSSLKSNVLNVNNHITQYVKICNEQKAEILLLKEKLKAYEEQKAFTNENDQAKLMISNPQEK
The experiment in a line: Enzymatic activity test (ADP-Glo, microtubule-stimulated KIF18A ATPase). The class given is biochemical. The settings on record: 60 μg/mL microtubules, 25 μM ATP, 2.5 nM KIF18A protein, 120 min at ambient temperature, read-out: KIF18A_nM. Here is the method:
Human KIF18A (amino acid sequence 1-417) was purchased from Viva Biotech (Shanghai) Ltd.; the ADP-Glo™ protein kinase kit was acquired from Promega, USA; tubulin was sourced from Cytoskeleton, USA; and the 384-well assay plate and Envision multifunctional microplate reader were obtained from PerkinElmer, USA.
Dissolve the compound powder in DMSO to prepare a stock solution of 10 mM. Then perform gradient dilution for the compounds in the microplate to achieve a final concentration of 0-10 μM. Then, add 2.5 μL each of tubulin, compound, ATP, and KIF18A protein to the microplate in sequence for reaction at ambient temperature for 120 min. The final concentrations in the enzyme reaction are 60 μg/mL for microtubules, 25 μM for ATP, and 2.5 nM for KIF18A protein. After the enzyme reaction, add 10 μL of ADP-GLO reaction reagent to each well and incubate at ambient temperature for 30 min. After that, add 20 μL of detection reagent to each well and incubate at ambient temperature for 30 min in the dark. Finally, perform chemiluminescence detection using the PerkinElmer Envision.

A further assay concerns OVCAR3 cells. The experiment in a line: Cell proliferation activity test in OVCAR3 cells (CyQUANT Direct). The settings on record: 3 days incubation, CyQUANT fluorescence detection, read-out: OVCAR-3_IC50_nM. It counts as cell-based. The method, then:
OVCAR3 cells were purchased from Nanjing Cobioer Biosciences Co., Ltd. RPMI-1640 medium, fetal bovine serum, and the CyQUANT Direct Cell Proliferation Assay kit were purchased from Thermo Fisher Scientific, USA; 96-well cell culture plates were sourced from Corning, USA.
Culture OVCAR3 cells with RPMI-1640 medium containing 10% fetal bovine serum and incubate them in a 5% CO2 incubator at 37° C. Only cells in the logarithmic growth phase can be used for the test.
Inoculate OVCAR3 cells into a 96-well cell culture plate at 90 μL per well and incubate overnight in a 5% CO2 incubator at 37° C. Dissolve the compound powder in DMSO to prepare a stock solution of 10 mM. Then perform gradient dilution for the compounds in the microplate to achieve a final concentration of 0-10 μM. Add 10 μL of cell culture medium containing compounds to each well to make the final DMSO content 0.2%. Incubate the cell plates in a 5% CO2 incubator at 37° C. for 3 days. Add 100 μL of CyQUANT detection reagent to each well, react at 37° C. for 60 min, and perform fluorescence detection using the PerkinElmer Envision.

Read-outs that look alike come from different tables or passages of the source.

Consider `O=C(Nc1nc(N2CCC(F)(F)CC2)nc2c1CCC2)c1ccc(NS(=O)(=O)CCO)cc1N1CCC2(CC1)CC2` [Example 1], for which the IC50 in assay [1] came out at 190 nM; in the assay on OVCAR3 cells (Homo sapiens, OVCAR-3, 72 h), 1030 nM.

Turning to `O=C(Nc1nc(N2CCC(F)(F)CC2)nc2c1COC2)c1ccc(NS(=O)(=O)CCO)cc1N1CCC2(CC1)CC2` [Example 2, N-(2-(4,4-difluoropiperidin-1-yl)-5,7-dihydrofuro[3,4-d]pyrimidin-4-yl)-4-((2-hydroxyethyl)sulfonamide)-2-(6-azaspiro[2.5]octan-6-yl)benzamide], the IC50 in assay [1] was determined as 251 nM; in the assay on OVCAR3 cells (Homo sapiens, OVCAR-3, 72 h), 899 nM.

Turning to `O=C(Nc1nc2c(c(N3CCC(F)(F)CC3)n1)CCC2)c1ccc(NS(=O)(=O)CCO)cc1N1CCC2(CC1)CC2` [Example 3, N-(4-(4,4-difluoropiperidin-1-yl)-6,7-dihydro-5H-cyclopenta[d]pyrimidin-2-yl)-4-((2-hydroxyethyl)sulfonamide)-2-(6-azaspiro[2.5]oct-6-yl)benzamide], the IC50 in assay [1] amounted to 68 nM; in the assay with OVCAR3 cells (Homo sapiens, OVCAR-3, 72 h), 566 nM.

`CC(C)(C)OC(=O)N1Cc2nc(NC(=O)c3ccc(NS(=O)(=O)CCO)cc3N3CCC4(CC3)CC4)nc(N3CCC(F)(F)CC3)c2C1` [Example 6, Tert-butyl 4-(4,4-difluoropiperidin-1-yl)-2-(4-(2-hydroxyethylsulfonamido)-2-(6-azaspiro[2.5]octan-6-yl)benzoylamino)-5H-pyrrolo[3,4-d]pyrimidine-6 (7H)-carboxylate]: the IC50 in assay [1] is 241 nM; in the assay on OVCAR3 cells (Homo sapiens, OVCAR-3, 72 h) it was 1480 nM.

In the case of `O=C(Nc1cc2nccn2c(N2CCC(F)(F)CC2)n1)c1ccc(NS(=O)(=O)CCO)cc1N1CCC2(CC1)CC2` [Example 21, N-(5-(4,4-difluoropiperidin-1-yl)imidazolo[1,2-c]pyrimidin-7-yl)-4-((2-hydroxyethyl)sulfonamide)-2-(6-azaspiro[2.5]octan-6-yl)benzamide], the IC50 in the assay on OVCAR3 cells (Homo sapiens, OVCAR-3, 72 h) came out at 358 nM.

Turning to `O=C(Nc1nc(N2CCC(F)(F)CC2)cc2nccn12)c1ccc(NS(=O)(=O)CCO)cc1N1CCC2(CC1)CC2` [Example 22], the IC50 in assay [1] was 1940 nM.

With `O=C(Nc1nc(N2CCC(F)(F)CC2)c2occc2c1Cl)c1ccc(NS(=O)(=O)CCO)cc1N1CCC2(CC1)CC2` [Example 33, N-(4-chloro-7-(4,4-difluoropiperidin-1-yl)furo[2,3-c]pyridin-5-yl)-4-(2-hydroxyethylsulfonamido)-2-(6-azaspiro[2.5]octan-6-yl)benzamide], the IC50 in assay [1] is 1640 nM.

With `O=C(Nc1cc2cccnc2c(C2CCN(CC(F)(F)F)CC2)n1)c1ccc(NS(=O)(=O)CCO)cc1N1CCC2(CC1)CC2` [Example 50, 4-(2-hydroxyethylsulfonamido)-2-(6-azaspiro[2.5]octan-6-yl)-N-(8-(1-(2,2,2-trifluoroethyl)piperidin-4-yl)-1,7-naphthyridin-6-yl)benzamide], the IC50 in assay [1] is 1490 nM.

`O=C(Nc1cc2ncccc2c(N2CCC(F)(F)CC2)n1)c1ccc(NS(=O)(=O)CCO)cc1N1CCC2(CC1)CC2` [Example 57]: the IC50 in assay [1] came out at 77 nM.

For `COc1ccc2cc(NC(=O)c3ccc(NS(=O)(=O)CCO)cc3N3CCC4(CC3)CC4)c(F)c(N3CCC(F)(F)CC3)c2n1` [Example 77, N-(8-(4,4-difluoropiperidin-1-yl)-7-fluoro-2-methoxyquinolin-6-yl)-4-((2-hydroxyethyl)sulfonamido)-2-(6-azaspiro[2.5]oct-6-yl)benzamide], the IC50 in assay [1] was found to be 848 nM; with OVCAR3 cells (Homo sapiens, OVCAR-3, 72 h), 745 nM.

Regarding `O=C(Nc1cc(N2CCC(F)(F)CC2)c2nccnc2c1)c1ccc(NS(=O)(=O)CCO)cc1N1CCC2(CC1)CC2` [Example 83, N-(8-(4,4-difluoropiperidin-1-yl)quinoxalin-6-yl)-4-((2-hydroxyethyl)sulfonamido)-2-(6-azaspiro[2.5]octan-6-yl)benzamide], the IC50 in assay [1] turned out to be 27 nM; with OVCAR3 cells (Homo sapiens, OVCAR-3, 72 h) it was 15 nM.

As for `CP(C)(=O)c1cnc2c(N3CCC(F)(F)CC3)cc(NC(=O)c3ccc(NS(=O)(=O)CCO)cc3N3CCC4(CC3)CC4)cc2c1` [Example 85, N-(8-(4,4-difluoropiperidin-1-yl)-3-(dimethylphosphoryl)quinolin-6-yl)-4-(2-hydroxyethylsulfonamido)-2-(6-azaspiro[2.5]octan-6-yl)benzamide], in assay [1], the IC50 was > 3000 nM.

For the compound `O=C(Nc1cc(N2CCC(F)(F)CC2)c2ncccc2n1)c1ccc(NS(=O)(=O)CCO)cc1N1CCC2(CC1)CC2` [Example 92, N-(4-(4,4-difluoropiperidin-1-yl)-1,5-naphthyridin-2-yl)-4-(2-hydroxyethylsulfonamido)-2-(6-azaspiro[2.5]octan-6-yl)benzamide], in assay [1], the IC50 amounted to 2260 nM.

With `O=C(Nc1cc(N2CCC(F)(F)CC2)nc2cccnc12)c1ccc(NS(=O)(=O)CCO)cc1N1CCC2(CC1)CC2` [Example 93, N-(2-(4,4-difluoropiperidin-1-yl)-1,5-naphthyridin-4-yl)-4-(2-hydroxyethylsulfonamido)-2-(6-azaspiro[2.5]octan-6-yl)benzamide], the IC50 in assay [1] was > 3000 nM.

`C[C@H](CO)S(=O)(=O)Nc1ccc(C(=O)Nc2cc3sc(N)nc3c(N3CCC(F)(F)CC3)c2F)c(N2CCC3(CC2)CC3)c1` [Example 94, N-[2-amino-4-(4,4-difluoropiperidin-1-yl)-5-fluoro-1,3-benzothiazol-6-yl]-2-{6-azaspiro[2.5]octan-6-yl}-4-[(2R)-1-hydroxypropane-2-sulfonamido]benzamide]: the IC50 in assay [1] came to 255 nM; in the assay on OVCAR3 cells (Homo sapiens, OVCAR-3, 72 h), 5.9 nM.

Take `C[C@@H](CO)S(=O)(=O)Nc1ccc(C(=O)Nc2cc3sc(N)nc3c(N3CCC(F)(F)CC3)c2F)c(N2CCC3(CC2)CC3)c1` [Example 95, N-[2-amino-4-(4,4-difluoropiperidin-1-yl)-5-fluoro-1,3-benzothiazol-6-yl]-2-{6-azaspiro[2.5]octan-6-yl}-4-[(2S)-1-hydroxypropane-2-sulfonamido]benzamide]: the IC50 in assay [1] was 242 nM; with OVCAR3 cells (Homo sapiens, OVCAR-3, 72 h), 4.7 nM.

As for `CC(CO)S(=O)(=O)Nc1ccc(C(=O)Nc2cc3sc(N)nc3c(N3CCC(F)(F)CC3)c2F)c(C2=CCC3(CC2)CC3)c1` (stereo not shown) [Example 101, N-(2-amino-4-(4,4-difluoropiperidin-1-yl)-5-fluorobenzo[d]thiazol-6-yl)-4-((2-hydroxy-1-methylethyl)sulfonamido)-2-(spiro[2.5]oct-5-en-6-yl)benzamide], in assay [1], the IC50 was 139 nM.

On to `CC(CO)S(=O)(=O)Nc1ccc(C(=O)Nc2cc3cccnc3c(N3[C@H](C)COC[C@H]3C)n2)c(N2CCC3(CC2)CC3)c1` (stereo partly drawn) [Example 102, 2-{6-Azaspiro[2.5]octan-6-yl}-N-[8-((3R,5R)-3,5-dimethylmorpholino)-1,7-naphthyridin-6-yl]-4-[1-hydroxypropane-2-sulfonamido]benzamide], for which, in assay [1], the IC50 stood at 150 nM.

Take “N-(5-(4,4-difluoropiperidin-1-yl) imidazo[1,2-c]pyrimidin-7-yl)-6-((2-hydroxyethyl)sulfonamido)-4-(6-azaspiro[2.5]octan-6-yl) nicotinamide [Example 23]”: the IC50 in assay [1] was 42 nM; in the assay on OVCAR3 cells it was > 10000 nM.
